Laboratory results as given in patent US12312641B2, “Sensitivity marker for antibody-drug conjugate” (priority 2018, dated 2025).
Read-outs that look alike come from different tables or passages of the source.

Columns and labels:
Format in all cases: cell-based
[1] = system: Human breast cancer cell line HCC38; assay: Cell proliferation inhibition test upon SLFN11 knockdown, HCC38; settings: for Cell proliferation inhibitory effect upon SLFN11 knockdown: HCC38 cell lines, SLFN11 siRNA vs Non-targeting Control; for Fold change (SLFN11/Non-targeting Control): ratio of IC50
Protocol: Human breast cancer cell line HCC38 was obtained from ATCC and used for evaluation. HCC38 cells suspended at 2×10^5 cells/mL in RPMI-1640 medium containing 10% bovine fetal serum were seeded in a 10 cm cell culture dish at 10 mL/dish. Twenty-four hours after seeding, 100 pmol of ON-TARGETplus SLFN11 siRNA (Dharmacon Inc.) or ON-TARGETplus Non-targeting Control Pool (Dharmacon Inc.) and 30 μL of Lipofectamine™ RNAiMAX Transfection Reagent (Thermo Fisher Scientific Inc.) were suspended in 1 mL of Opti-MEM medium, and the entire amount of the suspension was added to the medium. After 72 hours, the medium was removed and the dish was washed with PBS, then the cells were dissociated and recovered from the dish using 1 mL of TrypLE™ Express. The recovered cells were suspended at 5×10^4 cells/mL in RPMI-1640 medium containing 10% bovine fetal serum, and seeded in a 96-well cell culture plate at 100 μL/well. Twenty-four hours after seeding, the medium was replaced with a medium containing 100 nM, 33 nM, 11 nM, 3.7 nM, 1.2 nM, 0.41 nM, 0.13 nM, 0.045 nM, or 0 nM of compound (1) or antibody-drug conjugate (1) at 100 μL/well. The molar concentration of antibody-drug conjugate (1) was calculated by setting the average molecular weight to 150,000. Cells were all cultured at 37° C. under 5% CO2. After 72 hours from the medium replacement, ATPlite 1 step detection system (PerkinElmer Inc.) was added at 100 μL/well. The wells were incubated at room temperature for 10 minutes, then the luminescence intensity of each well was measured.
(§1) The cell growth inhibition rate (%) at each condition was calculated using the following calculation formula: Cell growth inhibition rate (%)=100×(1−T/C) • T: Average luminescence intensity of each well to which specimen was added • C: Average luminescence intensity of each well to which 0 nM specimen was added
(§2) The 50% inhibitory concentration at each condition was calculated by fitting to the following calculation formula: Cell viability (%)=(Emax−Emin)×Specimen concentration^γ/((max−50)/(50−Emin)×IC50^γ+Specimen concentration^γ)+Emin • Emax: maximum cell growth inhibition rate (%) • Emin: minimum cell growth inhibition rate (%) • IC50: 50% inhibitory concentration • γ: Hill coefficient
(§3) The fitting to the calculation formula was performed using SAS Systems Release 9.2 (SAS Institute Inc.).

[2] = system: Human lung cancer cell line Calu-3; assay: Cell proliferation inhibition test upon SLFN11 knockdown, Calu-3
Protocol: Human lung cancer cell line Calu-3 was obtained from ATCC and used for evaluation. Calu-3 cells suspended at 2×10^3 cells/mL in a MEM medium containing a non-essential amino acid solution, a pyruvic acid solution and 10% bovine fetal serum were seeded in a 10 cm cell culture dish at 10 mL/dish. Twenty-four hours after seeding, 100 pmol of ON-TARGETplus SLFN11 siRNA (Dharmacon Inc.) or ON-TARGETplus Non-targeting Control Pool (Dharmacon Inc.) and 30 μL of Lipofectamine™ RNAiMAX Transfection Reagent (Thermo Fisher Scientific Inc.) were suspended in 1 mL of Opti-MEM medium, and the entire amount of the suspension was added to the medium. After 72 hours, the medium was removed and the dish was washed with PBS, then the cells were dissociated and recovered from the dish using 1 mL of TrypLE™ Express. The recovered cells were suspended at 5×10^4 cells/mL in a MEM medium containing a non-essential amino acid solution, a pyruvic acid solution and 10% bovine fetal serum, and seeded in a 96-well cell culture plate at 100 μL/well. Twenty-four hours after seeding, the medium was replaced with a medium containing 100 nM, 33 nM, 11 nM, 3.7 nM, 1.2 nM, 0.41 nM, 0.13 nM, 0.045 nM, or 0 nM of compound (1) or antibody-drug conjugate (1) at 100 μL/well. The molar concentration of antibody-drug conjugate (1) was calculated by setting the average molecular weight to 150,000. Cells were all cultured at 37° C. under 5% CO2. After 72 hours from the medium replacement, ATPlite 1 step detection system (PerkinElmer Inc.) was added at 100 μL/well. The wells were incubated at room temperature for 10 minutes, then the luminescence intensity of each well was measured.
as §1
as §2, with “concentration^γ/((Emax−50)/(50−Emin)×IC50^γ+Specimen” for “concentration^γ/((max−50)/(50−Emin)×IC50^γ+Specimen”
as §3

[3] = system: Human pharyngeal cancer cell line FaDu; assay: Cell proliferation inhibition test upon SLFN11 knockdown, FaDu; settings: for Cell proliferation inhibitory effect upon SLFN11 knockdown: FaDu cell lines, SLFN11 siRNA vs Non-targeting Control; for Fold change (SLFN11/Non-targeting Control): ratio of IC50
Protocol: Human pharyngeal cancer cell line FaDu was obtained from ATCC and used for evaluation. FaDu cells suspended at 2×10^3 cells/mL in a MEM medium containing a non-essential amino acid solution, a pyruvic acid solution and 10% bovine fetal serum were seeded in a 10 cm cell culture dish at 10 mL/dish. Twenty-four hours after seeding, 100 pmol of ON-TARGETplus SLFN11 siRNA (Dharmacon Inc.) or ON-TARGETplus Non-targeting Control Pool (Dharmacon Inc.) and 30 μL of Lipofectamine™ RNAiMAX Transfection Reagent (Thermo Fisher Scientific Inc.) were suspended in 1 mL of Opti-MEM medium, and the entire amount of the suspension was added to the medium. After 72 hours, the medium was removed and the dish was washed with PBS, then the cells were dissociated and recovered from the dish using 1 mL of TrypLE™ Express. The recovered cells were suspended at 5×10^4 cells/mL in a MEM medium containing a non-essential amino acid solution, a pyruvic acid solution and 10% bovine fetal serum, and were seeded in a 96-well cell culture plate at 100 μL/well. Twenty-four hours after seeding, the medium was replaced with a medium containing 100 nM, 33 nM, 11 nM, 3.7 nM, 1.2 nM, 0.41 nM, 0.13 nM, 0.045 nM, or 0 nM of compound (1) or antibody-drug conjugate (1) at 100 μL/well. The molar concentration of antibody-drug conjugate (1) was calculated by setting the average molecular weight to 150,000. Cells were all cultured at 37° C. under 5% CO2. After 72 hours from the medium replacement, ATPlite 1 step detection system (PerkinElmer Inc.) was added at 100 μL/well. The wells were incubated at room temperature for 10 minutes, then the luminescence intensity of each well was measured.
as §1, with “growth inhibition rate(%) at each” for “growth inhibition rate (%) at each”
as §2, with “concentration^γ/((Emax−50)/(50−Emin)×IC50^γ+Specimen” for “concentration^γ/((max−50)/(50−Emin)×IC50^γ+Specimen”
as §3

## CC[C@@]1(O)C(=O)OCc2c1cc1n(c2=O)Cc2c-1nc1cc(F)c(C)c3c1c2[C@@H](NC(=O)CO)CC3 [Compound (1)]
[1]
  Cell proliferation inhibitory effect upon SLFN11 knockdown: attenuated by SLFN11 knockdown
[1]; HCC38 cells
  Fold change (SLFN11/Non-targeting Control): 2.6
[1]; Homo sapiens, HCC38, 72 h, read-out: IC50 (nM) Non-targeting Control Pool
  IC50: 1.6 nM
[1]; Homo sapiens, HCC38, 72 h, read-out: IC50 (nM) SLFN11 siRNA
  IC50: 4.2 nM
[2]; Calu-3 cell lines, SLFN11 siRNA vs Non-targeting Control
  Cell proliferation inhibitory effect upon SLFN11 knockdown: attenuated by SLFN11 knockdown
[2]; Calu-3 cells, ratio of IC50
  Fold change (SLFN11/Non-targeting Control): >4.8
[2]; Homo sapiens, Calu-3, 72 h, read-out: IC50 (nM) Non-targeting Control Pool
  IC50: 20.9 nM
[2]; Homo sapiens, Calu-3, 72 h, read-out: IC50 (nM) SLFN11 siRNA
  IC50: > 100 nM
[3]
  Cell proliferation inhibitory effect upon SLFN11 knockdown: attenuated by SLFN11 knockdown
[3]; FaDu cells
  Fold change (SLFN11/Non-targeting Control): 8.6
[3]; Homo sapiens, FaDu, 72 h, read-out: IC50 (nM) Non-targeting Control Pool
  IC50: 3.6 nM
[3]; Homo sapiens, FaDu, 72 h, read-out: IC50 (nM) SLFN11 siRNA
  IC50: 30.8 nM

B1: antibody-drug conjugate (1): humanized anti-hTROP2 antibody (SEQ ID NO: 1 residues 20-470, SEQ ID NO: 2 residues 21-234) conjugated to the exatecan-derivative drug-linker via a thioether bond (conjugate, chains of the INN, looked up)
VH: QVQLVQSGAEVKKPGASVKVSCKASGYTFTTAGMQWVRQAPGQGLEWMGWINTHSGVPKYAEDFKGRVTISADTSTSTAYLQLSSLKSEDTAVYYCARSGFGSSYWYFDVWGQGTLVTVSS
VL: DIQMTQSPSSLSASVGDRVTITCKASQDVSTAVAWYQQKPGKAPKLLIYSASYRYTGVPSRFSGSGSGTDFTLTISSLQPEDFAVYYCQQHYITPLTFGQGTKLEIK
modifications: exatecan-derivative drug-linker
[1]
  Cell proliferation inhibitory effect upon SLFN11 knockdown: attenuated by SLFN11 knockdown
[1]; HCC38 cells, Non-targeting Control Pool, 72 hours, ATPlite, read-out: IC50 (nM) Non-targeting Control Pool
  IC50: 56.7 nM
[1]; HCC38 cells, SLFN11 siRNA knockdown, 72 hours, ATPlite, read-out: IC50 (nM) SLFN11 siRNA
  IC50: > 100 nM
[1]; HCC38 cells
  Fold change (SLFN11/Non-targeting Control): >1.8
[2]; Calu-3 cells, Non-targeting Control Pool, 72 hours, ATPlite, read-out: IC50 (nM) Non-targeting Control Pool
  IC50: > 100 nM
[2]; Calu-3 cells, SLFN11 siRNA knockdown, 72 hours, ATPlite, read-out: IC50 (nM) SLFN11 siRNA
  IC50: > 100 nM
[3]
  Cell proliferation inhibitory effect upon SLFN11 knockdown: attenuated by SLFN11 knockdown
[3]; FaDu cells, Non-targeting Control Pool, 72 hours, ATPlite, read-out: IC50 (nM) Non-targeting Control Pool
  IC50: 42.6 nM
[3]; FaDu cells, SLFN11 siRNA knockdown, 72 hours, ATPlite, read-out: IC50 (nM) SLFN11 siRNA
  IC50: > 100 nM
[3]; FaDu cells
  Fold change (SLFN11/Non-targeting Control): >2.3
